Where two headings read alike, the source gives them in different places.
System: PSMA + PC-3 PiP and PSMA − PC-3 flu tumor xenografts
Details: for Biodistribution: PC-3 PiP: PSMA+ tumor xenograft; for Biodistribution: PC-3 flu: PSMA− tumor xenograft

Q: For `O=C(O)CC[C@H](NC(=O)N[C@@H](CSCc1ccc([125I])cc1)C(=O)O)C(=O)O` [[^125I] labeled DCIBC, (S)-2-(3-((R)-1-carboxy-2-(4-[^125I]iodobenzylthio)ethyl)ureido)-pentanedioic Acid], which “Biodistribution: Lrg Int.” value (1 H post-injection) is on record?
A: 1.2 ± 0.1 % ID/g

Q: And the “Biodistribution: PSMA + tumor” value (1 H post-injection)?
A: 8.0 ± 1.3 % ID/g

Q: What about the “Biodistribution: PSMA − tumor” value (1 H post-injection) of the same molecule?
A: 1.3 ± 0.2 % ID/g

Q: What about the “Biodistribution: Sm int.” value (1 H post-injection) of the same molecule?
A: 1.2 ± 0.3 % ID/g

Q: And the “Biodistribution: blood” value (1 H post-injection)?
A: 5.8 ± 2.3 % ID/g

Q: And the “Biodistribution: heart” value (1 H post-injection)?
A: 1.5 ± 0.2 % ID/g

Q: And the “Biodistribution: kidney” value (1 H post-injection)?
A: 77 ± 17 % ID/g

Q: And the “Biodistribution: liver” value (1 H post-injection)?
A: 20 ± 4 % ID/g

Q: What about the “Biodistribution: lung” value (1 H post-injection) of the same molecule?
A: 2.2 ± 0.4 % ID/g

Q: What about the “Biodistribution: muscle” value (1 H post-injection) of the same molecule?
A: 1.0 ± 0.8 % ID/g

Q: And the “Biodistribution: spleen” value (1 H post-injection)?
A: 5.1 ± 2.2 % ID/g

Q: And the “Biodistribution: Lrg Int.” value (2 H post-injection)?
A: 1.2 ± 0.5 % ID/g

Q: What about the “Biodistribution: PSMA + tumor” value (2 H post-injection) of the same molecule?
A: 5.6 ± 1.3 % ID/g

Q: And the “Biodistribution: PSMA − tumor” value (2 H post-injection)?
A: 0.9 ± 0.1 % ID/g

Q: And the “Biodistribution: Sm int.” value (2 H post-injection)?
A: 1.1 ± 0.2 % ID/g

Q: And the “Biodistribution: blood” value (2 H post-injection)?
A: 4.9 ± 2.6 % ID/g

Q: And the “Biodistribution: heart” value (2 H post-injection)?
A: 1.1 ± 0.2 % ID/g

Q: What about the “Biodistribution: kidney” value (2 H post-injection) of the same molecule?
A: 30 ± 8 % ID/g

Q: And the “Biodistribution: liver” value (2 H post-injection)?
A: 17 ± 4 % ID/g

Q: And the “Biodistribution: lung” value (2 H post-injection)?
A: 1.9 ± 0.5 % ID/g

Q: And the “Biodistribution: muscle” value (2 H post-injection)?
A: 0.5 ± 0.2 % ID/g

Q: And the “Biodistribution: spleen” value (2 H post-injection)?
A: 3.2 ± 0.6 % ID/g

Q: What about the “Biodistribution: Lrg Int.” value (5 H post-injection) of the same molecule?
A: 2.7 ± 1.9 % ID/g

Q: And the “Biodistribution: PSMA + tumor” value (5 H post-injection)?
A: 5.5 ± 0.6 % ID/g

Q: And the “Biodistribution: PSMA − tumor” value (5 H post-injection)?
A: 1.0 ± 0.3 % ID/g

Q: And the “Biodistribution: Sm Int.” value (5 H post-injection)?
A: 1.7 ± 1.5 % ID/g

Q: What about the “Biodistribution: blood” value (5 H post-injection) of the same molecule?
A: 3.3 ± 1.1 % ID/g

Q: What about the “Biodistribution: heart” value (5 H post-injection) of the same molecule?
A: 0.9 ± 0.5 % ID/g

Q: What about the “Biodistribution: kidney” value (5 H post-injection) of the same molecule?
A: 18 ± 6 % ID/g

Q: And the “Biodistribution: liver” value (5 H post-injection)?
A: 17 ± 1 % ID/g

Q: What about the “Biodistribution: lung” value (5 H post-injection) of the same molecule?
A: 1.0 ± 0.5 % ID/g

Q: What about the “Biodistribution: muscle” value (5 H post-injection) of the same molecule?
A: 0.4 ± 0.2 % ID/g

Q: And the “Biodistribution: spleen” value (5 H post-injection)?
A: 3.9 ± 1.1 % ID/g

Q: `N=C(N)NCc1ccc(C(=O)NCCCC[C@H](NC(=O)N[C@@H](CCC(=O)O)C(=O)O)C(=O)O)cc1[131I]` [[^131I] labeled 7 (PSMA-620)] was tested. Which “Biodistribution: Sm int.” value (1 H post-injection) did it give?
A: 3.14 ± 0.66 % ID/g

Q: And the “Biodistribution: bladder” value (1 H post-injection)?
A: 1.99 ± 0.50 % ID/g

Q: And the “Biodistribution: blood” value (1 H post-injection)?
A: 0.95 ± 0.15 % ID/g

Q: What about the “Biodistribution: heart” value (1 H post-injection) of the same molecule?
A: 1.29 ± 0.37 % ID/g

Q: And the “Biodistribution: kidney” value (1 H post-injection)?
A: 103 ± 24.0 % ID/g

Q: What about the “Biodistribution: liver” value (1 H post-injection) of the same molecule?
A: 8.25 ± 2.47 % ID/g

Q: And the “Biodistribution: lung” value (1 H post-injection)?
A: 3.29 ± 0.56 % ID/g

Q: What about the “Biodistribution: muscle” value (1 H post-injection) of the same molecule?
A: 0.56 ± 0.05 % ID/g

Q: And the “Biodistribution: spleen” value (1 H post-injection)?
A: 17.1 ± 3.71 % ID/g

Q: And the “Biodistribution: stomach” value (1 H post-injection)?
A: 2.01 ± 0.41 % ID/g

Q: And the “Biodistribution: thyroid” value (1 H post-injection)?
A: 0.79 ± 0.17 % ID/g

Q: What about the “Biodistribution: Sm int.” value (2 H post-injection) of the same molecule?
A: 2.29 ± 0.69 % ID/g

Q: And the “Biodistribution: bladder” value (2 H post-injection)?
A: 1.65 ± 0.48 % ID/g

Q: And the “Biodistribution: blood” value (2 H post-injection)?
A: 0.58 ± 0.08 % ID/g

Q: And the “Biodistribution: heart” value (2 H post-injection)?
A: 0.89 ± 0.18 % ID/g

Q: And the “Biodistribution: kidney” value (2 H post-injection)?
A: 89.0 ± 5.18 % ID/g

Q: And the “Biodistribution: liver” value (2 H post-injection)?
A: 5.62 ± 1.17 % ID/g

Q: And the “Biodistribution: lung” value (2 H post-injection)?
A: 1.99 ± 0.23 % ID/g

Q: And the “Biodistribution: muscle” value (2 H post-injection)?
A: 0.34 ± 0.08 % ID/g

Q: What about the “Biodistribution: spleen” value (2 H post-injection) of the same molecule?
A: 6.81 ± 3.20 % ID/g

Q: What about the “Biodistribution: stomach” value (2 H post-injection) of the same molecule?
A: 2.55 ± 0.69 % ID/g

Q: And the “Biodistribution: thyroid” value (2 H post-injection)?
A: 0.77 ± 0.25 % ID/g

Q: What about the “Biodistribution: Sm int.” value (4 H post-injection) of the same molecule?
A: 1.32 ± 0.68 % ID/g

Q: What about the “Biodistribution: bladder” value (4 H post-injection) of the same molecule?
A: 1.96 ± 1.10 % ID/g

Q: What about the “Biodistribution: blood” value (4 H post-injection) of the same molecule?
A: 0.30 ± 0.08 % ID/g

Q: And the “Biodistribution: heart” value (4 H post-injection)?
A: 0.75 ± 0.34 % ID/g

Q: And the “Biodistribution: kidney” value (4 H post-injection)?
A: 77.7 ± 38.8 % ID/g

Q: And the “Biodistribution: liver” value (4 H post-injection)?
A: 4.37 ± 2.96 % ID/g

Q: What about the “Biodistribution: lung” value (4 H post-injection) of the same molecule?
A: 1.69 ± 0.67 % ID/g

Q: What about the “Biodistribution: muscle” value (4 H post-injection) of the same molecule?
A: 0.23 ± 0.10 % ID/g

Q: What about the “Biodistribution: spleen” value (4 H post-injection) of the same molecule?
A: 3.63 ± 2.40 % ID/g

Q: And the “Biodistribution: stomach” value (4 H post-injection)?
A: 2.87 ± 0.55 % ID/g

Q: What about the “Biodistribution: thyroid” value (4 H post-injection) of the same molecule?
A: 0.75 ± 0.17 % ID/g

Q: And the “Biodistribution: Sm int.” value (14 H post-injection)?
A: 0.42 ± 0.12 % ID/g

Q: What about the “Biodistribution: bladder” value (14 H post-injection) of the same molecule?
A: 0.74 ± 0.35 % ID/g

Q: What about the “Biodistribution: blood” value (14 H post-injection) of the same molecule?
A: 0.16 ± 0.04 % ID/g

Q: What about the “Biodistribution: heart” value (14 H post-injection) of the same molecule?
A: 0.48 ± 0.12 % ID/g

Q: What about the “Biodistribution: kidney” value (14 H post-injection) of the same molecule?
A: 17.2 ± 10.7 % ID/g

Q: What about the “Biodistribution: liver” value (14 H post-injection) of the same molecule?
A: 0.60 ± 0.28 % ID/g

Q: What about the “Biodistribution: lung” value (14 H post-injection) of the same molecule?
A: 1.02 ± 0.27 % ID/g

Q: What about the “Biodistribution: muscle” value (14 H post-injection) of the same molecule?
A: 0.10 ± 0.02 % ID/g

Q: What about the “Biodistribution: spleen” value (14 H post-injection) of the same molecule?
A: 1.27 ± 0.42 % ID/g

Q: What about the “Biodistribution: stomach” value (14 H post-injection) of the same molecule?
A: 2.24 ± 1.08 % ID/g

Q: What about the “Biodistribution: thyroid” value (14 H post-injection) of the same molecule?
A: 0.74 ± 0.27 % ID/g

Q: And the “Biodistribution: Sm int.” value (21 H post-injection)?
A: 0.31 ± 0.07 % ID/g

Q: What about the “Biodistribution: bladder” value (21 H post-injection) of the same molecule?
A: 0.56 ± 0.37 % ID/g

Q: What about the “Biodistribution: blood” value (21 H post-injection) of the same molecule?
A: 0.09 ± 0.07 % ID/g

Q: What about the “Biodistribution: heart” value (21 H post-injection) of the same molecule?
A: 0.40 ± 0.11 % ID/g

Q: And the “Biodistribution: kidney” value (21 H post-injection)?
A: 7.52 ± 1.82 % ID/g

Q: What about the “Biodistribution: liver” value (21 H post-injection) of the same molecule?
A: 0.33 ± 0.06 % ID/g

Q: And the “Biodistribution: lung” value (21 H post-injection)?
A: 1.00 ± 0.21 % ID/g

Q: And the “Biodistribution: muscle” value (21 H post-injection)?
A: 0.09 ± 0.01 % ID/g

Q: And the “Biodistribution: spleen” value (21 H post-injection)?
A: 0.93 ± 0.37 % ID/g

Q: And the “Biodistribution: stomach” value (21 H post-injection)?
A: 1.91 ± 0.95 % ID/g

Q: And the “Biodistribution: thyroid” value (21 H post-injection)?
A: 0.88 ± 0.13 % ID/g

Q: And the “Biodistribution: PC-3 PiP” value (1 H post-injection)?
A: 16.5 ± 4.78 % ID/g

Q: And the “Biodistribution: PC-3 PiP” value (2 H post-injection)?
A: 17.2 ± 4.34 % ID/g

Q: And the “Biodistribution: PC-3 PiP” value (4 H post-injection)?
A: 18.3 ± 4.27 % ID/g

Q: What about the “Biodistribution: PC-3 PiP” value (14 H post-injection) of the same molecule?
A: 15.8 ± 2.42 % ID/g

Q: And the “Biodistribution: PC-3 PiP” value (21 H post-injection)?
A: 13.6 ± 3.33 % ID/g

Q: What about the “Biodistribution: PC-3 flu” value (1 H post-injection) of the same molecule?
A: 1.09 ± 0.21 % ID/g

Q: And the “Biodistribution: PC-3 flu” value (2 H post-injection)?
A: 0.80 ± 0.11 % ID/g

Q: What about the “Biodistribution: PC-3 flu” value (4 H post-injection) of the same molecule?
A: 0.57 ± 0.21 % ID/g

Q: What about the “Biodistribution: PC-3 flu” value (14 H post-injection) of the same molecule?
A: 0.28 ± 0.10 % ID/g

Q: What about the “Biodistribution: PC-3 flu” value (21 H post-injection) of the same molecule?
A: 0.20 ± 0.08 % ID/g
